Data reported in patent publication US4626535A, “Cephalosporins” (Bayer Aktiengesellschaft, priority 1983, dated 1986).
Values after ≈ are worked out from the molar mass of the structure shown.

What was measured:
Assay in all cases: in vitro MIC comparison in Isosensitest agar
Assay type in all cases: cell-based
[1] = test system: Psdm. 7035; conditions: Pseudomonas
Text: (§1) The compound of Example 21 was compared in vitro with Cefotaxim (MIC-comparison in Isosensitest agar): […]

[2] = test system: Psdm. Walter; conditions: Pseudomonas
Text: as §1

[3] = test system: Enterobacter Cloacae 56US; conditions: CLOACAE56US
Text: as §1

[4] = test system: Staph. E; conditions: Staphylococcus
Text: as §1

[5] = test system: Staph. 25470; conditions: Staphylococcus
Text: as §1

[6] = test system: Staph. 133; conditions: Staphylococcus
Text: as §1

[7] = test system: Staph. 1756; conditions: Staphylococcus
Text: as §1

| SMILES | MIC [1] [µg/mL] | MIC [2] [µg/mL] | MIC [3] [µg/mL] | MIC [4] [µg/mL] | MIC [5] [µg/mL] | MIC [6] [µg/mL] | MIC [7] [µg/mL] |
| --- | --- | --- | --- | --- | --- | --- | --- |
| CO/N=C(\C(=O)N[C@@H]1C(=O)N2C(C(=O)O)=C(COC(C)=O)CS[C@H]12)c1csc(N)n1 [Cefotaxim] | 16 (≈ 35.1 µM) | 16 (≈ 35.1 µM) | > 128 | 0.5 (≈ 1.1 µM) | > 128 | 1 (≈ 2.2 µM) | 128 (≈ 281 µM) |
| C/C=C(\C(=O)NC1C(=O)N2C(C(=O)[O-])=C(C[n+]3ccccc3)CSC12)c1nsc(N)n1 (centres unmarked) [Example 21, 7-(1-(5-Amino-1,2,4-thiadiazol-3-yl)-1(Z)-propenecarboxamido)-3-pyridiniummethyl-3-cephem-4-carboxylate] | 8 (≈ 17.4 µM) | 8 to 16 (≈ 17.4 to 34.9 µM) | 64 (≈ 140 µM) | 0.125 (≈ 0.273 µM) | 8 (≈ 17.4 µM) | 0.5 (≈ 1.09 µM) | 8 (≈ 17.4 µM) |
